# Measured values as given in PubChem BioAssay AID1963432 (Molecular Pharmacology Branch, DTP, NCI, 2024).
# System: SYO-1 complex spheroid growth, percent test/control
# Assay: Anticancer human tumor SYO-1 cell line growth inhibition [Asc];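 note: compound exposure lasted 7 days after spheroids grew 3 days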;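 for viability, T/C: 100% = DMSO vehicle control viability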
# Conditions: for IC50: curve of first compound; for viability, T/C: stronger effect = lower value
# Outline: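 Concentration series start at each agent's clinical Cmax, or at 10 microM when none is established, and drop in half-log steps; agents are applied alone or together to complex spheroids built with HUVEC and hMSC.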
# [1] = second compound 0.01 µM, first compound 0.0316 µM
# [2] = second compound 0.01 µM, first compound 0.1 µM
# [3] = second compound 0.0316 µM, first compound 0.0316 µM
# [4] = second compound 0.0316 µM, first compound 0.1 µM
# [5] = second compound 0.1 µM, first compound 0.0316 µM
# [6] = second compound 0.1 µM, first compound 0.1 µM
# [7] = second compound 0.316 µM, first compound 0.0316 µM
# [8] = second compound 0.316 µM, first compound 0.1 µM
# [9] = second compound 1 µM, first compound 0.0316 µM
# [10] = second compound 1 µM, first compound 0.1 µM
compound,measurement,setting,value
C=C(F)C(=O)N1CCN(c2nc(OCC3CCCN3C)nc3c2CCN(c2cccc4cccc(Cl)c24)C3)CC1CC#N (configuration not stated) + CNC(C)C(=O)NC1CN(S(=O)(=O)c2cccc(S(=O)(=O)N3CCC4CCC(C(=O)NC(c5ccccc5)c5ccccc5)N4C(=O)C(NC(=O)C(C)NC)C3)c2)CCC2CCC(C(=O)NC(c3ccccc3)c3ccccc3)N2C1=O,IC50,second compound 0.01 µM,5.65 µM
same,IC50,second compound 0.0316 µM,5.6 µM
same,IC50,second compound 0.1 µM,5.58 µM
same,IC50,second compound 0.316 µM,5.46 µM
same,IC50,second compound 1 µM,5.36 µM
same,"viability, T/C",[1],99.1%
same,"viability, T/C",[2],113%
same,"viability, T/C","second compound 0.01 µM, first compound 0.316 µM",104%
same,"viability, T/C","second compound 0.01 µM, first compound 1 µM",99.7%
same,"viability, T/C","second compound 0.01 µM, first compound 3.16 µM",101%
same,"viability, T/C","second compound 0.01 µM, first compound 10 µM",0.23%
same,"viability, T/C",[3],96.7%
same,"viability, T/C",[4],103%
same,"viability, T/C","second compound 0.0316 µM, first compound 0.316 µM",101%
same,"viability, T/C","second compound 0.0316 µM, first compound 1 µM",98.3%
same,"viability, T/C","second compound 0.0316 µM, first compound 3.16 µM",99%
same,"viability, T/C","second compound 0.0316 µM, first compound 10 µM",0.22%
same,"viability, T/C",[5],100%
same,"viability, T/C",[6],105%
same,"viability, T/C","second compound 0.1 µM, first compound 0.316 µM",95%
same,"viability, T/C","second compound 0.1 µM, first compound 1 µM",97.2%
same,"viability, T/C","second compound 0.1 µM, first compound 3.16 µM",98.6%
same,"viability, T/C","second compound 0.1 µM, first compound 10 µM",0.21%
same,"viability, T/C",[7],98.5%
same,"viability, T/C",[8],103%
same,"viability, T/C","second compound 0.316 µM, first compound 0.316 µM",103%
same,"viability, T/C","second compound 0.316 µM, first compound 1 µM",88.7%
same,"viability, T/C","second compound 0.316 µM, first compound 3.16 µM",95%
same,"viability, T/C","second compound 0.316 µM, first compound 10 µM",0.23%
same,"viability, T/C",[9],104%
same,"viability, T/C",[10],104%
same,"viability, T/C","second compound 1 µM, first compound 0.316 µM",101%
same,"viability, T/C","second compound 1 µM, first compound 1 µM",94.2%
same,"viability, T/C","second compound 1 µM, first compound 3.16 µM",92.3%
same,"viability, T/C","second compound 1 µM, first compound 10 µM",0.26%
Cc1nc(N2CCC3(CC2)COC(C)C3N)c(CO)nc1Sc1ccnc(N)c1Cl (configuration not stated) + CCN1C(C(=O)NC23CCC(C(=O)O)(CC2)CC3)C(c2cccc(Cl)c2F)C2(C(=O)Nc3cc(Cl)ccc32)C12CCCCC2,IC50,second compound 0.00949 µM,> 3 µM
same,IC50,second compound 0.03 µM,> 3 µM
same,IC50,second compound 0.0949 µM,> 3 µM
same,IC50,second compound 0.3 µM,< 0.00949 µM
same,IC50,second compound 0.949 µM,< 0.00949 µM
same,IC50,second compound 3 µM,< 0.00949 µM
same,"viability, T/C","second compound 0.00949 µM, first compound 0.00949 µM",111%
same,"viability, T/C","second compound 0.00949 µM, first compound 0.03 µM",103%
same,"viability, T/C","second compound 0.00949 µM, first compound 0.0949 µM",112%
same,"viability, T/C","second compound 0.00949 µM, first compound 0.3 µM",109%
same,"viability, T/C","second compound 0.00949 µM, first compound 0.949 µM",116%
same,"viability, T/C","second compound 0.00949 µM, first compound 3 µM",114%
same,"viability, T/C","second compound 0.03 µM, first compound 0.00949 µM",111%
same,"viability, T/C","second compound 0.03 µM, first compound 0.03 µM",103%
same,"viability, T/C","second compound 0.03 µM, first compound 0.0949 µM",108%
same,"viability, T/C","second compound 0.03 µM, first compound 0.3 µM",99.7%
same,"viability, T/C","second compound 0.03 µM, first compound 0.949 µM",117%
same,"viability, T/C","second compound 0.03 µM, first compound 3 µM",117%
same,"viability, T/C","second compound 0.0949 µM, first compound 0.00949 µM",82.8%
same,"viability, T/C","second compound 0.0949 µM, first compound 0.03 µM",81.1%
same,"viability, T/C","second compound 0.0949 µM, first compound 0.0949 µM",86.8%
same,"viability, T/C","second compound 0.0949 µM, first compound 0.3 µM",91.2%
same,"viability, T/C","second compound 0.0949 µM, first compound 0.949 µM",96.9%
same,"viability, T/C","second compound 0.0949 µM, first compound 3 µM",83.3%
same,"viability, T/C","second compound 0.3 µM, first compound 0.00949 µM",24.3%
same,"viability, T/C","second compound 0.3 µM, first compound 0.03 µM",19.9%
same,"viability, T/C","second compound 0.3 µM, first compound 0.0949 µM",23.2%
same,"viability, T/C","second compound 0.3 µM, first compound 0.3 µM",17.4%
same,"viability, T/C","second compound 0.3 µM, first compound 0.949 µM",17.4%
same,"viability, T/C","second compound 0.3 µM, first compound 3 µM",10.9%
same,"viability, T/C","second compound 0.949 µM, first compound 0.00949 µM",3.59%
same,"viability, T/C","second compound 0.949 µM, first compound 0.03 µM",2.68%
same,"viability, T/C","second compound 0.949 µM, first compound 0.0949 µM",3.26%
same,"viability, T/C","second compound 0.949 µM, first compound 0.3 µM",1.67%
same,"viability, T/C","second compound 0.949 µM, first compound 0.949 µM",1.74%
same,"viability, T/C","second compound 0.949 µM, first compound 3 µM",0.54%
same,"viability, T/C","second compound 3 µM, first compound 0.00949 µM",0.99%
same,"viability, T/C","second compound 3 µM, first compound 0.03 µM",1.08%
same,"viability, T/C","second compound 3 µM, first compound 0.0949 µM",0.94%
same,"viability, T/C","second compound 3 µM, first compound 0.3 µM",2.3%
same,"viability, T/C","second compound 3 µM, first compound 0.949 µM",0.69%
same,"viability, T/C","second compound 3 µM, first compound 3 µM",0.39%
Cn1ncnc1[C@H]1c2n[nH]c(=O)c3cc(F)cc(c23)N[C@@H]1c1ccc(F)cc1 + CNC(C)C(=O)NC1CN(S(=O)(=O)c2cccc(S(=O)(=O)N3CCC4CCC(C(=O)NC(c5ccccc5)c5ccccc5)N4C(=O)C(NC(=O)C(C)NC)C3)c2)CCC2CCC(C(=O)NC(c3ccccc3)c3ccccc3)N2C1=O,IC50,second compound 0.01 µM,> 0.1 µM
same,IC50,second compound 0.0316 µM,> 0.1 µM
same,IC50,second compound 0.1 µM,> 0.1 µM
same,IC50,second compound 0.316 µM,> 0.1 µM
same,IC50,second compound 1 µM,> 0.1 µM
same,"viability, T/C","second compound 0.01 µM, first compound 0.000316 µM",107%
same,"viability, T/C","second compound 0.01 µM, first compound 0.001 µM",106%
same,"viability, T/C","second compound 0.01 µM, first compound 0.00316 µM",103%
same,"viability, T/C","second compound 0.01 µM, first compound 0.01 µM",91.8%
same,"viability, T/C",[1],76.8%
same,"viability, T/C",[2],82.9%
same,"viability, T/C","second compound 0.0316 µM, first compound 0.000316 µM",101%
same,"viability, T/C","second compound 0.0316 µM, first compound 0.001 µM",102%
same,"viability, T/C","second compound 0.0316 µM, first compound 0.00316 µM",103%
same,"viability, T/C","second compound 0.0316 µM, first compound 0.01 µM",98.3%
same,"viability, T/C",[3],75.8%
same,"viability, T/C",[4],86.3%
same,"viability, T/C","second compound 0.1 µM, first compound 0.000316 µM",108%
same,"viability, T/C","second compound 0.1 µM, first compound 0.001 µM",93.6%
same,"viability, T/C","second compound 0.1 µM, first compound 0.00316 µM",96.8%
same,"viability, T/C","second compound 0.1 µM, first compound 0.01 µM",93.4%
same,"viability, T/C",[5],75.4%
same,"viability, T/C",[6],86.3%
same,"viability, T/C","second compound 0.316 µM, first compound 0.000316 µM",112%
same,"viability, T/C","second compound 0.316 µM, first compound 0.001 µM",103%
same,"viability, T/C","second compound 0.316 µM, first compound 0.00316 µM",95%
same,"viability, T/C","second compound 0.316 µM, first compound 0.01 µM",92.1%
same,"viability, T/C",[7],66.8%
same,"viability, T/C",[8],86.4%
same,"viability, T/C","second compound 1 µM, first compound 0.000316 µM",98.2%
same,"viability, T/C","second compound 1 µM, first compound 0.001 µM",107%
same,"viability, T/C","second compound 1 µM, first compound 0.00316 µM",96.3%
same,"viability, T/C","second compound 1 µM, first compound 0.01 µM",93.6%
same,"viability, T/C",[9],78.9%
same,"viability, T/C",[10],85.7%
